Reference: Sander's compilation of Henry's law constants

Legend:
[1] = Henry solubility constant Hcp at 291 K (mol/(m3 Pa))
[2] = Henry solubility constant Hcp at 294 K (mol/(m3 Pa))
[3] = Henry solubility constant Hcp at 298.15 K (mol/(m3 Pa))
[4] = Henry solubility constant Hcp at 293 K (mol/(m3 Pa))
[5] = Henry solubility constant Hcp at 288 K (mol/(m3 Pa))
[6] = Henry solubility constant Hcp at 301 K (mol/(m3 Pa)); settings: reference: Nelson and Hoff (1968)
[7] = Henry solubility constant Hcp at 296 K (mol/(m3 Pa))
[8] = Henry solubility constant Hcp at 303 K (mol/(m3 Pa))
[9] = Henry solubility constant Hcp at 295 K (mol/(m3 Pa))
[10] = Henry solubility constant Hcp at 290 K (mol/(m3 Pa)); settings: reference: Thomas et al. (2006)
[11] = Henry solubility constant Hcp at 297 K (mol/(m3 Pa))
[12] = Henry solubility constant Hcp at 278 K (mol/(m3 Pa))
[13] = reference: Treves et al. (2000)
[14] = reference: Murphy et al. (1983a)
[15] = reference: Pividal et al. (1992)
[16] = reference: Gan and Yates (1996)
[17] = reference: Elliott and Rowland (1993)
[18] = reference: Glew and Moelwyn-Hughes (1953)
[19] = reference: Swain and Thornton (1962)
[20] = reference: O’Sullivan et al. (1996)
[21] = reference: Komiyama and Inoue (1980)

CCC(O)CO[N+](=O)[O-] (stereo not drawn) [1-nitrooxy-2-butanol]
Henry solubility constant Hcp at 291 K [1, 13]: 89

Clc1cc(Cl)c(-c2ccc(Cl)c(Cl)c2Cl)cc1Cl [2,2',3,4,4',5'-hexachlorobiphenyl]
Henry solubility constant Hcp at 294 K ([2]; reference: Brownawell (1986)): 0.14
Henry solubility constant Hcp [3, 14]: 0.021

Clc1ccc(Cl)c(-c2ccc(Cl)c(Cl)c2)c1 [2,3',4',5-tetrachlorobiphenyl]
Henry solubility constant Hcp at 294 K ([2]; reference: Brownawell (1986)): 0.11
Henry solubility constant Hcp [3, 14]: 0.049

Clc1ccc(-c2ccccc2Cl)cc1 [2,4'-dichlorobiphenyl]
Henry solubility constant Hcp at 294 K ([2]; reference: Brownawell (1986)): 0.057
Henry solubility constant Hcp ([3]; reference: Charles and Destaillats (2005)): 0.023
Henry solubility constant Hcp [3, 14]: 0.045

CCC(CO)O[N+](=O)[O-] (stereo not drawn) [2-nitrooxy-1-butanol]
Henry solubility constant Hcp at 291 K [1, 13]: 88

CC(C)O [2-propanol]
Henry solubility constant Hcp at 293 K ([4]; reference: Yu (1992)): 0.98
Henry solubility constant Hcp at 288 K [5, 15]: 1.4
Henry solubility constant Hcp ([3]; reference: Butler et al. (1935)): 1.2
Henry solubility constant Hcp ([3]; reference: Kim et al. (2000)): 1.1
Henry solubility constant Hcp ([3]; reference: Lin and Chou (2006)): 1.3
Henry solubility constant Hcp ([3]; reference: Snider and Dawson (1985)): 1.2

CC(C)CC=O [3-methylbutanal]
Henry solubility constant Hcp at 301 K [6]: 0.02
Henry solubility constant Hcp ([3]; reference: Bruneel et al. (2016)): 0.011
Henry solubility constant Hcp ([3]; reference: Pollien et al. (2003)): 0.026
Henry solubility constant Hcp ([3]; reference: Wieland et al. (2015)): 0.024

O=[N+]([O-])OCCCCO [4-nitrooxy-1-butanol]
Henry solubility constant Hcp at 291 K [1, 13]: 290

CC(O)CCO[N+](=O)[O-] (stereo not drawn) [4-nitrooxy-2-butanol]
Henry solubility constant Hcp at 291 K [1, 13]: 130

c1ccccc1 [benzene]
Henry solubility constant Hcp at 293 K ([4]; reference: Vitenberg et al. (1974)): 0.0012
Henry solubility constant Hcp at 293 K ([4]; reference: Yu (1992)): 0.0019
Henry solubility constant Hcp at 293 K ([4]; reference: Yurteri et al. (1987)): 0.0013
Henry solubility constant Hcp at 296 K ([7]; reference: Anderson (1992)): 0.0018
Henry solubility constant Hcp at 296 K ([7]; reference: Miller and Stuart (2000)): 0.0018
Henry solubility constant Hcp at 303 K ([8]; reference: Saylor et al. (1938)): 0.0015
Henry solubility constant Hcp ([3]; reference: Alaee et al. (1996)): 0.0018
Henry solubility constant Hcp ([3]; reference: Allen et al. (1998)): 0.0018
Henry solubility constant Hcp ([3]; reference: Bakierowska and Trzeszczyński (2003)): 0.0018
Henry solubility constant Hcp ([3]; reference: Bierwagen and Keller (2001)): 0.0019
Henry solubility constant Hcp ([3]; reference: Bissonette et al. (1990)): 0.0016
Henry solubility constant Hcp ([3]; reference: Brown and Wasik (1974)): 0.0017
Henry solubility constant Hcp ([3]; reference: Cooling et al. (1992)): 0.0017
Henry solubility constant Hcp ([3]; reference: Ervin et al. (1980)): 0.0012
Henry solubility constant Hcp ([3]; reference: Ettre et al. (1993)): 0.0018
Henry solubility constant Hcp ([3]; reference: Green and Frank (1979)): 0.0018
Henry solubility constant Hcp ([3]; reference: Görgényi et al. (2002)): 0.0017
Henry solubility constant Hcp ([3]; reference: Hartkopf and Karger (1973)): 0.0021
Henry solubility constant Hcp ([3]; reference: Keeley et al. (1988)): 0.0017
Henry solubility constant Hcp ([3]; reference: Khalfaoui and Newsham (1994b)): 0.0017
Henry solubility constant Hcp ([3]; reference: Lau et al. (2010)): 0.0014
Henry solubility constant Hcp ([3]; reference: Lei et al. (2004)): 0.0014
Henry solubility constant Hcp ([3]; reference: Li et al. (2008)): 0.0018
Henry solubility constant Hcp ([3]; reference: Lodge and Danso (2007)): 0.0025
Henry solubility constant Hcp ([3]; reference: Mackay et al. (1979)): 0.0018
Henry solubility constant Hcp ([3]; reference: Nielsen et al. (1994)): 0.002
Henry solubility constant Hcp ([3]; reference: Park et al. (1997)): 0.0014
Henry solubility constant Hcp ([3]; reference: Peng and Wan (1997)): 0.0019
Henry solubility constant Hcp ([3]; reference: Peng and Wan (1998)): 0.0022
Henry solubility constant Hcp ([3]; reference: Perlinger et al. (1993)): 0.0017
Henry solubility constant Hcp ([3]; reference: Robbins et al. (1993)): 0.0018
Henry solubility constant Hcp ([3]; reference: Sanemasa et al. (1981)): 0.0017
Henry solubility constant Hcp ([3]; reference: Sieg et al. (2009)): 0.0017
Henry solubility constant Hcp ([3]; reference: Tsibul’skii et al. (1979)): 0.0016
Henry solubility constant Hcp ([3]; reference: Tsonopoulos and Wilson (1983)): 0.0018
Henry solubility constant Hcp ([3]; reference: Turner et al. (1996)): 0.0016
Henry solubility constant Hcp ([3]; reference: Vitenberg et al. (1975)): 0.0018
Henry solubility constant Hcp ([3]; reference: Warner et al. (1980)): 0.0018
Henry solubility constant Hcp ([3]; reference: Wasik and Tsang (1970)): 0.0016
Henry solubility constant Hcp at 295 K ([9]; reference: de Wolf and Lieder (1998)): 0.0022

BrBr [bromine (molecular)]
Henry solubility constant Hcp at 293 K ([4]; reference: Jenkins and King (1965)): 0.0096
Henry solubility constant Hcp at 288 K ([5]; reference: Jones (1911)): 0.014
Henry solubility constant Hcp ([3]; reference: Hill et al. (1968)): 0.0068
Henry solubility constant Hcp ([3]; reference: Kelley and Tartar (1956)): 0.007
Henry solubility constant Hcp ([3]; reference: Winkler (1899)): 0.0079
Henry solubility constant Hcp ([3]; reference: Winkler (1906)): 0.0078

CBr [bromomethane]
Henry solubility constant Hcp at 294 K [2, 16]: 0.0014
Henry solubility constant Hcp at 290 K [10]: 0.002
Henry solubility constant Hcp ([3]; reference: De Bruyn and Saltzman (1997)): 0.0018
Henry solubility constant Hcp [3, 17]: 0.0017
Henry solubility constant Hcp [3, 18]: 0.0016
Henry solubility constant Hcp [3, 19]: 0.0015

Cl/C=C\CCl [cis-1,3-dichloropropene]
Henry solubility constant Hcp at 290 K [10]: 0.01
Henry solubility constant Hcp ([3]; reference: Leistra (1970)): 0.005

C[Si]1(C)O[Si](C)(C)O[Si](C)(C)O[Si](C)(C)O[Si](C)(C)O[Si](C)(C)O1 [dodecamethylcyclohexasiloxane]
Henry solubility constant Hcp at 297 K ([11]; reference: Xu and Kropscott (2012)): 4e-07

CC(=O)OO [ethanoic peroxyacid]
Henry solubility constant Hcp ([3]; reference: Lind and Kok (1994)): 6.5
Henry solubility constant Hcp [3, 20]: 8.3
Henry solubility constant Hcp at 278 K ([12]; reference: Sauer (1997)): 24

CCOC(C)=O [ethyl ethanoate]
Henry solubility constant Hcp at 301 K [6]: 0.057
Henry solubility constant Hcp at 303 K ([8]; reference: Richon et al. (1985)): 0.043
Henry solubility constant Hcp at 288 K ([5]; reference: Ioffe et al. (1984)): 0.13
Henry solubility constant Hcp at 288 K [5, 15]: 0.11
Henry solubility constant Hcp ([3]; reference: Ammari and Schroen (2019)): 0.052
Henry solubility constant Hcp ([3]; reference: Aprea et al. (2007)): 0.051
Henry solubility constant Hcp ([3]; reference: Butler and Ramchandani (1935)): 0.074
Henry solubility constant Hcp ([3]; reference: Druaux et al. (1998)): 0.066
Henry solubility constant Hcp ([3]; reference: Fenclová et al. (2014)): 0.062
Henry solubility constant Hcp ([3]; reference: Jones et al. (1988)): 0.062
Henry solubility constant Hcp ([3]; reference: Kieckbusch and King (1979b)): 0.058
Henry solubility constant Hcp ([3]; reference: Kutsuna and Kaneyasu (2021)): 0.059
Henry solubility constant Hcp ([3]; reference: Kutsuna et al. (2005)): 0.059
Henry solubility constant Hcp ([3]; reference: Landy et al. (1995)): 0.057

CCOO [ethyl hydroperoxide]
Henry solubility constant Hcp [3, 20]: 3.3
Henry solubility constant Hcp at 278 K ([12]; reference: Sauer (1997)): 11

CI [iodomethane]
Henry solubility constant Hcp at 294 K [2, 16]: 0.0019
Henry solubility constant Hcp ([3]; reference: Balls (1980)): 0.002
Henry solubility constant Hcp [3, 17]: 0.002
Henry solubility constant Hcp [3, 18]: 0.0019
Henry solubility constant Hcp ([3]; reference: Hunter-Smith et al. (1983)): 0.0019
Henry solubility constant Hcp [3, 19]: 0.0018

O=COO [methanoic peroxyacid]
Henry solubility constant Hcp at 278 K ([12]; reference: Sauer (1997)): 29

COO [methyl hydroperoxide]
Henry solubility constant Hcp ([3]; reference: Li et al. (2004)): 2.5
Henry solubility constant Hcp ([3]; reference: Lind and Kok (1994)): 3
Henry solubility constant Hcp ([3]; reference: Magi et al. (1997)): > 6.9
Henry solubility constant Hcp [3, 20]: 3.1
Henry solubility constant Hcp at 278 K ([12]; reference: Sauer (1997)): 12

[O]N=O [nitrogen dioxide]
Henry solubility constant Hcp at 288 K [5, 21]: 0.00023
Henry solubility constant Hcp ([3]; reference: Cheung et al. (2000)): 0.00012
Henry solubility constant Hcp at 295 K ([9]; reference: Lee and Schwartz (1981)): 6.9e-05

[N]=O [nitrogen monoxide]
Henry solubility constant Hcp at 288 K [5, 21]: 2.3e-05
Henry solubility constant Hcp at 297 K ([11]; reference: Zafiriou and McFarland (1980)): 1.3e-05
Henry solubility constant Hcp ([3]; reference: Komiyama and Inoue (1978)): 1.9e-05
Henry solubility constant Hcp ([3]; reference: Winkler (1901)): 1.9e-05

O=[O+][O-] [ozone]
Henry solubility constant Hcp at 293 K ([4]; reference: Gurol and Singer (1982)): 0.00017
Henry solubility constant Hcp at 293 K ([4]; reference: Levanov et al. (2008)): 0.00011
Henry solubility constant Hcp at 291 K ([1]; reference: Schöne (1873)): 0.00012
Henry solubility constant Hcp ([3]; reference: Andreozzi et al. (1996)): 9.2e-05
Henry solubility constant Hcp ([3]; reference: Briner and Perrottet (1939)): 0.00013
Henry solubility constant Hcp ([3]; reference: Fischer and Tropsch (1917)): 0.0002
Henry solubility constant Hcp ([3]; reference: Gershenzon et al. (2001)): 0.00011
Henry solubility constant Hcp ([3]; reference: Kilpatrick et al. (1956)): 9.9e-05
Henry solubility constant Hcp ([3]; reference: Kosak-Channing and Helz (1983)): 0.00011
Henry solubility constant Hcp ([3]; reference: Luther (1905)): 8e-05
Henry solubility constant Hcp ([3]; reference: Mailfert (1894)): 0.00012
Henry solubility constant Hcp ([3]; reference: Rischbieter et al. (2000)): 9.9e-05
Henry solubility constant Hcp ([3]; reference: Sotelo et al. (1989)): 0.00012
Henry solubility constant Hcp ([3]; reference: Stumm (1958)): 0.00012

Cl/C=C/CCl [trans-1,3-dichloropropene]
Henry solubility constant Hcp at 290 K [10]: 0.015
Henry solubility constant Hcp ([3]; reference: Leistra (1970)): 0.0081

O=C(Cl)C(Cl)(Cl)Cl [trichloroacetylchloride]
Henry solubility constant Hcp ([3]; reference: George et al. (1994a)): 0.02
Henry solubility constant Hcp ([3]; reference: Mirabel et al. (1996)): 0.02
Henry solubility constant Hcp at 278 K ([12]; reference: De Bruyn et al. (1995a)): 0.02
